US12173344B2, “Fluorescent fusion based heterologous peptide production” (Stellenbosch University, priority 2020, dated 2024)
Where no end group is shown, it is not given here.

What was measured:
Assay type in all cases: cell-based
[1] = test system: Listeria monocytogenes EDG-e; assay: Antilisterial activity, spot plate and SDS-PAGE agar overlay
Protocol: While the respective bacteriocins were fused to GFP and produced a fluorescent complex, it was important to determine that antimicrobial activity was due to the liberated bacteriocin. Antimicrobial activity of plantaricin 423 and mundticin ST4SA was assessed against Listeria monocytogenes EDG-e grown on Brain Heart Infusion media (BHI) containing […] chloramphenicol. The spot plate method was performed on solid medium (1% w/v agar) seeded with Listeria monocytogenes EDG-e. SDS-PAGE separations were assayed for activity by casting the polyacrylamide gel in an agar bilayer seeded with Listeria monocytogenes EDG-e. Before casting, the poly acrylamide gels were fixed for 20 min in a 25% isopropanol, 10% acetic acid fixing solution and then rinsed 3×15 min with sterile ultra-pure water.
Cleavage parameters were optimized using a modified method from that supplied by the manufacturer. The WELQut-to-Sample ratios were set to 1:100, 1:50, 1:25, 1:5 (v/v) for 50 μL samples of GFP-PlaX and GFP-MunX, respectively, and diluted to a final volume of 250 μL in WELQut cut buffer. The approximate corresponding units of WELQ to 466.5 μg of GFP-PlaX was 2.5 U, 5 U, 10 U and 50 U respectively. The approximate corresponding units of WELQ to 547.5 μg of GFP-MunX was 2.5 U, 5 U, 10 U and 50 U respectively. Cleavage reactions were incubated at 28° C., and 50 μL samples were collected at 2 h, 4 h, 8 h, and 16 h, respectively. Cleavage was assessed by the spot plate method using BHI solid medium (1% w/v agar) seeded with Listeria monocytogenes EGD-e.
Mundticin ST4SA and plantaricin 423 were cleaved from one millilitre of His-tag purified GFP-MunX and GFP-PlaX, respectively, under optimal cleavage conditions. Cleavage reactions were purified using high performance liquid chromatography (HPLC), single peaks were spot tested for antilisterial activity.

[2] = test system: S. carnosus; assay: Antimicrobial activity (clear zones on plates) against S. carnosus; settings: thrombin and hNisP, 4 h and 20 h cleavage
Protocol: (§1) For initial antimicrobial efficacy testing, both GFP-fused and non-GFP-fused pLanthipeptides were loaded (GFP-pNisin and GFP-pPep5) and cleaved directly in wells with trypsin (5 μg/mL for GFPpNisin) or thrombin (3 U/100 μL for GFP-pPep5). Antimicrobial activity was evaluated against Lactobacillus sakei for nisin and against S. carnosus for GFP-pPep5. Plates were incubated at 30° C. overnight until visible clear zones were observed. Lactobacillus sakei was cultured in MRS broth or agar and S. carnosus was cultured in Mueller Hinton Broth or agar.
(§2) GFP-pLanthipeptides were cleaved at 37° C. for 4 h and 20 h, with thrombin or hNisP. Heterologously expressed hNisP was added to concentrations of 0.01 ng/μL, 5 ng/μL, 10 ng/μL, 50 ng/μL and 70 ng/μL. Thrombin was added at 0.75 U, 4.5 U, 3 U and 6 U. Cleavage reactions were performed in 100 μL reactions and protein concentrations of GFP-pLanthipeptides were adjusted to final concentrations of 1 mg/ml with the exception of GFP-pPep5Th which was adjusted to 0.9 mg/mL. Cleavage reactions were stopped by the addition of protease inhibitors. Antimicrobial activity was evaluated against Lb. sakei and S. carnosus for GFP-pNisin (30 μL) and GFP-pPep5 (80 μL), respectively. Plates were incubated at 30° C. overnight until visible clear zones were observed. Samples were separated using SDS-PAGE.

[3] = test system: Erythrocyte; assay: Erythrocyte lysis (haemolysis) assay; settings: fusion not cleaved
Text: FIG. 18: Top Panel-SDS-PAGE of purified GFP-LLO and LLO used in erythrocyte lysis assay. Left: Stained gel. Right: Fluorescent image of GFP-LLO and GFP, L: Ladder (NEB ladder #P7712), 1: Uncut GFP-LLO, 2: Cleaved, IMAS purified and desalted LLO. A: GFP-LLO, B: LLO. Bottom Panel-Erythrocyte haemolysis following GFP-LLO exposure at varying pH. Relative haemoglobin absorbance was collected at 540 nm, values expressed as percentage of positive control, mean±SEM (n=3), Analysis via t-test concluded *=p<0.001, ***=p<0.0001 vs Untreated.

[4] = test system: Lactobacillus sakei; assay: Antimicrobial activity (clear zones on plates) against Lactobacillus sakei
Protocol: as §1, §2

[5] = after cleavage / liberation of the core peptide, expression at 26° C.

For “GFP-MunX: GFP fused to mature mundticin ST4SA with WELQut cleavage site (SEQ ID NO:32)”, the “Antilisterial activity at the band location” value ([1]; SDS-PAGE gel overlay after WELQut cleavage, zone at the size/location of the named species) was “zones of antilisterial activity”, the Antilisterial activity ([1]; WELQut cleaved samples, SDS-PAGE gel overlay) was “clear zones” and the Specific activity ([1]; cleaved fusion protein, compared with the other GFP-bacteriocin) was “higher specific activity”. The Antilisterial activity ([1]; uncleaved fusion protein, spot plate) was “did not show antilisterial activity”.

With “Pep5: lanthipeptide liberated from GFP-pPep5 by thrombin or hNisP (TAGPAIRASVKQCQKTLKATRLFTVSCKGKNGCK; also: lanthipeptide (lantibiotic) thioether rings, not placed; UniProt P19578 27-60, looked up)” the “Effect on antimicrobial activity of increasing concentration and cleavage time” value [2] was “detrimental effect”.

With GFP-LLO the “Activity of LLO while fused to fluorescent partner” value [3] was “still has activity”.

In the case of “HispNisin: His-tagged precursor nisin, no fluorescent fusion (MSTKDFNLDLVSVSKKDSGASPRITSISLCTPGCKTGALMGCNMKTATCHCSIHVSK; cysteine pairing not given here; also: His tag, not shown in chain; UniProt P13068 1-57, looked up)”, the Antimicrobial activity [4, 5] is reported as “decrease”, the Antimicrobial activity ([4]; after cleavage with trypsin, expression at 18° C., soluble and insoluble fractions) is reported as “highest activity” and the Antimicrobial activity ([4]; after cleavage with trypsin, expression at 37° C.) is reported as “substantial loss in activity”.

In the case of “GFP-pNisin: N-terminal His tagged GFP with WELQut site fused to precursor nisin (SEQ ID NO:28/30)”, the Antimicrobial activity [4, 5] is reported as “highest activity”, the Antimicrobial activity ([4]; after cleavage with trypsin, expression at a range of temperatures, induction times and IPTG concentrations) is reported as “activity was detected” and the Antimicrobial activity ([4]; uncleaved sample) is reported as “absent”.
